Patent publication EP1276895B1, “METHOD FOR THE IDENTIFICATION OF ACTIVE SITE PROTEASE INACTIVATORS” (THE UNIVERSITY OF GEORGIA RESEARCH FOUNDATION, INC., priority 2000, dated 2001)
Several values for one entry are separate records, joined by “and”; a condition that tells them apart may be missing. Identical values can stand only once. Residues, ends and D or L forms follow the SMILES beside them. *: point of attachment. AFC = O=c1cc(C(F)(F)F)c2ccc(N*)cc2o1; Cbz = O=C(OCc1ccccc1)*; CH2F = FC*

Tests used:
Format in all cases: biochemical
[1] = system: purified Taenia solium cysteine protease; assay: Competitor assay of low Vmax substrates (vehicles) against high Vmax substrate cocktails (Step III), purified protease; details: for inhibition in the presence of the 1.4% cocktail: 1.4% cocktail = Z-FR-AFC 1X10^-6M; for inhibition with the final cocktail (7.4%): 7.4% cocktail = Z-FR-AFC + Z-FAR-AFC + Z-AAK-AFC + AP-AFC + Z-VLR-AFC, 1X10^-6 M each, vehicle 8X10^-6 M; for Ki of vehicle: Dixon plot, preliminary, values not reported
Procedure: (We employed "Vmax" here although Kcat could also be used). Due to the lower number of substrates, a percentage was not chosen for the "BOTTOM %" " substrates. Alternately, all substrates which were not cleaved as determined by a value of 10 uM/hr or less, were chosen to be tested in this step for competitive ability. From this point forth, the term "vehicle" will represent low Vmax substrates that were capable of inhibiting cleavage of the percent cocktails. In this instance, we tested for "vehicles" which inhibited cleavage of the TOP 1.4% cocktail (they were delivered into the active site). Based upon our results from Step II, the top 1.4% cocktail was composed of Z-Phe-Arg-AFC, the highest cleaved substrate.
The experiment began with a competitor test between the noncleaved low Vmax substrates and the highest Vmax substrate, Z-Phe-Arg-AFC. Concentrations were varied between the low Vmax substrate and Z-Phe-Arg-AFC, as described above under "refinement of assay" until a relative inhibition profile was obtained.
The mixture was allowed to equilibrate for a period of 30 minutes. Finally, active purified enzyme was added to the tubes at a concentration which was always 50 times less than the concentration of the high and low Vmax substrates, in order to insure saturation conditions. This concentration varied from purification to purification and the amount added depended upon the yield and specific activity of the purified protease.
Positive controls were set up similarly as described for test controls, except that solvent was added in substitution for the low Vmax substrate (in a volume equal to the low Vmax volume addition). All of the substrates could be dissolved in dimethylsulfoxide (DMSO), and therefore, this was the solvent of choice. Negative controls were set up by adding the low Vmax and the high Vmax substrate in a tube without the protease. All potential non-proteolytic induced liberation of AFC was therefore controlled for in this tube (a feature which also insured stability of the AFC substrates, since these substrates will freely liberate AFC when unstable). A tube set will be established for this negative control.
All controls were set up in triplicate, and experiments repeated a minimum of five times. The assays were incubated at 37°C, for 18 hours overnight.
Percent inhibition was calculated as: %Inhibition =; ((AFC positive for"Y"-AFC negative for"Y")-(AFC test-AFC negative for"Y")X100)/(AFC positive for "Y"-AFC negative for "Y") [formula]
A 2.9% cocktail of the high Vmax substrates was made. This was composed of Z-FR-AFC and the second most cleaved substrate, Z-FAR-AFC. The vehicles promoted from the initial screenings above were again tested for competitive inhibition ability with the new cocktails. Their concentrations were set identically to those which were "fixed" in the previous protocols. In other words, 8X10^-6M of the vehicle was added to the culture tube with 1X10^-6 M of Z-FR-AFC and 1X10^-6 M of Z-FAR-AFC. Active protease was added last at a concentration that was 50 times less than the concentration of the high Vmax substrate (to ensure saturating conditions).
In similar experimental fashion, a 4.4%, 5.9%, and 7.4% cocktail were tested with each of the promising vehicles. Each percentage point represented an increase by one substrate. Each of the individual components in the cocktail were added at 1X10^-6 M each, to 8X10^-6 M of the vehicle. The composition of the cocktails was as follows: 4.4% cocktail: Z-FR-AFC, Z-FAR-AFC, and Z-AAK-AFC (third highest cleaved substrate); 5.9% cocktail: Z-FR-AFC, Z-FAR-AFC, Z-AAK-AFC, and AP-AFC (fourth highest cleaved substrate); 7.4% cocktail: […], Z-FAR-AFC, Z-AAK-AFC, AP-AFC, and Z-VLR-AFC. We stopped at this number of substrates in the cocktail, since confidence was obtained that inhibitory potential of vehicles could be "diluted out."
Finally, a manageable set of candidate vehicles was determined. […]

Cathepsin B (cysteine) = Cathepsin B (cysteine) (Homo sapiens, UniProt P07858); assay: Differential cleavage (selectivity) test, Cathepsin B; details: 0.4 M Citrate pH 6.1, 10 mM L-cysteine, substrate Z-ARR-AFC; for inhibition at 0.0003 µM: inhibitor 3 X 10^-10 M
Procedure: (§1) In order to perform the assay, the vehicle (for Step VI) or inhibitor (for Step IX) were incubated with the appropriate substrate in the correct assay buffer and allowed to equilibrate. Subsequently, the protease was added, and the assay was allowed to incubate for an appropriate time. The concentrations used in this experiment were as follows: Vehicle was set up at 4 X 10^-5 M in final assay buffer; Inhibitor was set up at 3 X 10^-10 M in the final assay buffer. Accordingly, the dosages employed should be the minimal amount of vehicle or inhibitor necessary to induce inhibition. […] Substrates were set up based upon the preferred substrate for cleavage of the particular enzyme.
(§2) Positive controls were set up similarly as described for test controls, except that solvent was added in substitution for the inhibitor or vehicle (in a volume equal to the volume of inhibitor or vehicle addition). All of the inhibitors and vehicles could be dissolved in dimethylsulfoxide (DMSO), and therefore, this was the solvent of choice. Negative controls were set up by adding the inhibitor or vehicle and the preferred substrates in a tube without the protease. All potential non-proteolytic liberation of AFC was therefore controlled for in this tube (a feature which also insured stability of the AFC substrates, since these substrates will freely liberate AFC when unstable).
(§3) All controls were set up in triplicate, and experiments were repeated a minimum of five times.
(§4) Percent inhibition was calculated as: % Inhibition = ((AFC positive for ʺSIʺ-AFC negative for ʺSIʺ)-(AFC test-AFC negative for ʺSIʺ))/(AFC positive for ʺSIʺ-AFC negative for ʺSIʺ) × 100 [formula] In this preliminary test, we employed the following human-derived enzymes (with indicated mechanistic class): Cathepsin B (cysteine), Cathepsin L (cysteine), Cathepsin H (cysteine), Cathepsin D (aspartic) Trypsin (serine), the purified Taenia solium cysteine protease, and the Taenia solium crude mix. Cathepsin B was prepared in an assay buffer of 10 mM L-cysteine in 0.4 M Citrate buffer, pH 6.1, using Z-ARR-AFC as the cleavage substrate. Cathepsin L was prepared in an assay buffer of 10 mM L-cysteine in 0.4 M Citrate buffer, pH 5.5, using Z-FR-AFC as the cleavage substrate. Cathepsin H was prepared in an assay buffer of 10 mM L-cysteine in 0.15 M PBS buffer, pH 6.8, using L-R-AFC as the cleavage substrate. Cathepsin D was prepared in an assay buffer of 0.15 M PBS, pH 7.1, using Z-RGFFP-AFC as the cleavage substrate. Trypsin was prepared in an assay buffer of 0.15 M PBS, pH 8.0, supplemented with 100 mM CaCl2 and with Z-R-AFC as the cleavage substrate. Enzyme was incubated so that it was at least 50 times less than the concentration of substrate in order to insure saturating conditions.

Cathepsin L (cysteine) = Cathepsin L (cysteine) (Homo sapiens, UniProt P07711); assay: Differential cleavage (selectivity) test, Cathepsin L; details: 0.4 M Citrate pH 5.5, 10 mM L-cysteine, substrate Z-FR-AFC
Procedure: as §1, §2, §3, §4

[2] = vehicle 8X10^-6M, purified protease
[3] = inhibitor 3 X 10^-10 M, 0.0003 µM

Chain of Cathepsin L (cysteine) (P07711 114-333): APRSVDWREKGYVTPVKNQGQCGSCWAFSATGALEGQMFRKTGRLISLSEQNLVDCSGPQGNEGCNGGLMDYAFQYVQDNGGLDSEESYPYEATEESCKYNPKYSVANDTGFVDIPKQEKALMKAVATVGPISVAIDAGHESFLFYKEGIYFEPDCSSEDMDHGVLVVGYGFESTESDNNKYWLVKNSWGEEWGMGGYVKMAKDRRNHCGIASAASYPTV

CC(C)C[C@H](NC(=O)OCc1ccccc1)C(=O)N[C@@H](CC(C)C)C(=O)N[C@@H](CC(C)C)C(=O)Nc1ccc2c(C(F)(F)F)cc(=O)oc2c1 [Z-LLL-AFC, Z-Leu-Leu-Leu-AFC] (Cbz-Leu-Leu-Leu-{AFC})
inhibition in the presence of the 1.4% cocktail [1, 2]: greater than 20%
inhibition with the final cocktail (7.4%) ([1]; purified protease): ≥ 50%
Ki of vehicle [1]: lowest Ki values
inhibition at 40 µM (Cathepsin B (cysteine); vehicle 4 X 10^-5 M): 0%
inhibition at 40 µM (Cathepsin L (cysteine); vehicle 4 X 10^-5 M): 0%

CC(C)C[C@H](NC(=O)[C@H](CC(C)C)NC(=O)[C@H](CC(C)C)NC(=O)OCc1ccccc1)C(=O)CF [Z-LLL-FMK, Z-Leu-Leu-Leu-fluoromethylketone] (Cbz-Leu-Leu-Leu-CH2F)
inhibition at 0.0003 µM (Cathepsin B (cysteine)): 0%
inhibition at 0.0003 µM (Cathepsin L (cysteine); inhibitor 3 X 10^-10 M): 50%
% Inhibition (Cathepsin L (cysteine); [3]): almost half of the inhibition of the Taenia solium cysteine protease

CC(C)C[C@H](NC(=O)OCc1ccccc1)C(=O)N[C@@H](CC(C)C)C(=O)N[C@@H](Cc1ccc(O)cc1)C(=O)Nc1ccc2c(C(F)(F)F)cc(=O)oc2c1 [Z-LLY-AFC, Z-Leu-Leu-Tyr-AFC] (Cbz-Leu-Leu-Tyr-{AFC})
inhibition in the presence of the 1.4% cocktail [1, 2]: greater than 20%
inhibition with the final cocktail (7.4%) ([1]; purified protease): ≥ 50%
Ki of vehicle [1]: lowest Ki values
inhibition at 40 µM (Cathepsin B (cysteine); vehicle 4 X 10^-5 M): 0%
inhibition at 40 µM (Cathepsin L (cysteine); vehicle 4 X 10^-5 M): 0%

CC(C)C[C@H](NC(=O)OCc1ccccc1)C(=O)N[C@@H](CC(C)C)C(=O)N[C@@H](Cc1ccc(O)cc1)C(=O)CF [Z-LLY-FMK, Z-Leu-Leu-Tyr-FMK] (Cbz-Leu-Leu-Tyr-CH2F)
inhibition at 0.0003 µM (Cathepsin B (cysteine)): 0%
inhibition at 0.0003 µM (Cathepsin L (cysteine); inhibitor 3 X 10^-10 M): 0%
% Inhibition (Cathepsin L (cysteine); [3]): did not inhibit cathepsin L at all

Mu-Leu-Tyr-AFC [Mu-LY-AFC]
inhibition with the final cocktail (7.4%) ([1]; purified protease): ≥ 50%
Ki of vehicle [1]: lowest Ki values
V Value ([1]; purified protease, V = P * M, P = inhibition with first (1.4%) cocktail, M = inhibition with last (7.4%) cocktail, vehicle 8X10^-6M, each cocktail substrate 1X10^-6 M): 0.452 and 0.450
% Inhibition (Cathepsin B (cysteine); vehicle 4 X 10^-5 M, 40 µM): 0%
% Inhibition (Cathepsin L (cysteine); vehicle 4 X 10^-5 M): 25%
% Inhibition (Cathepsin L (cysteine); vehicle 4 X 10^-5 M, 40 µM): subtle inhibition
